Values of other authors in patent US20050273047A1, “System and method for transdermal delivery of an anticoagulant” (priority 2004, published 2005).

Target: Factor Xa (Homo sapiens, UniProt P00742)
Conditions: as compared to the corresponding methyl ester; cited from earlier work

Chain of Factor Xa (P00742 235-488 limits assumed): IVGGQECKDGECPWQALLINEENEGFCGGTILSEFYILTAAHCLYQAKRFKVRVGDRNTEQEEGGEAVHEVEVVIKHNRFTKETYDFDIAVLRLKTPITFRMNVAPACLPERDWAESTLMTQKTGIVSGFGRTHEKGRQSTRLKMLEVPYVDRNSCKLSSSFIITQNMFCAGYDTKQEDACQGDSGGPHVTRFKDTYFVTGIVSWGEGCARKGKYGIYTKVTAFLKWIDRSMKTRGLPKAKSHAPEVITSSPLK
Chain of Factor Xa (P00742 41-179 partner limits assumed): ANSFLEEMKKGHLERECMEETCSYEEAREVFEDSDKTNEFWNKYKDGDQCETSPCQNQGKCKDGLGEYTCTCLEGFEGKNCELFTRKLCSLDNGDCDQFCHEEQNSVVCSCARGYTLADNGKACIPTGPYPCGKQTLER

## CC(=N)N1CC[C@H](Oc2ccc([C@H](Cc3ccc4ccc(C(=N)N)cc4c3)C(=O)O)cc2)C1 [compound shown in FIG. 7]
  enhancement of Factor Xa selectivity by the carboxylic acid: about 100 fold
